Experiments:
Assay type in all cases: cell-based
hGPR17L-V103M = target: T1, hGPR17L-V103M (Homo sapiens, UniProt Q13304, V103M); assay: GloSensor stimulatory cAMP assay with pertussis toxin pretreatment
T1 construct: expressed in transfected cells; host or cells: HEK293 (ATCC CRL-1573), transient transfection
Method: (§1) For agonist-mediated stimulatory cAMP assays, HEK293 cells were seeded and transfected as noted above. Cells were treated with 100 ng/ml pertussis toxin overnight (Sigma-Aldrich P2980). Twenty-four hours posttransfection, growth medium and transfection mix were aspirated and replaced with 100 μl/well equilibration medium (2% Promega GloSensor cAMP reagent [E1291; Promega Corporation] in CO2-independent medium) containing 100 ng/ml pertussis toxin and incubated at room temperature for 2 h. Baseline luminescence was read every 2 min on a Molecular Devices SpectraMax iD5 plate reader (Molecular Devices) at ambient room temperature for 8 min. Subsequently, 10 μl/well MDL29,951 diluted in assay buffer (HBSS, 20 mM HEPES, pH 7.2) was added and luminescence was read every 2 min for 16 min. Within each well, the luminescence values for each time point were normalized to their average baseline luminescence values. The average luminescence values for the time points between 8 and 16 min after MDL29,951 addition were expressed as a percentage of the maximum response observed for hGPR17L-WT.

hGPR17L-F43L = target: T2, hGPR17L-F43L (Homo sapiens, UniProt Q13304, F43L); assay: as above
T2 construct: expressed in transfected cells; host or cells: HEK293 (ATCC CRL-1573), transient transfection
Method: as §1

hGPR17L-A131T = target: T3, hGPR17L-A131T (Homo sapiens, UniProt Q13304, A131T); assay: as above
T3 construct: expressed in transfected cells; host or cells: HEK293 (ATCC CRL-1573), transient transfection
Method: as §1

hGPR17L-G354V = target: T4, hGPR17L-G354V (Homo sapiens, UniProt Q13304, G354V); assay: as above
T4 construct: expressed in transfected cells; host or cells: HEK293 (ATCC CRL-1573)
Method: as §1

hGPR17L-R248Q [1] = target: T5, hGPR17L-R248Q (Homo sapiens, UniProt Q13304, R248Q); assay: as above
T5 construct: expressed in transfected cells; host or cells: HEK293 (ATCC CRL-1573), transient transfection
Method: as §1

hGPR17L-R301H = target: T6, hGPR17L-R301H (Homo sapiens, UniProt Q13304, R301H); assay: as above
T6 construct: expressed in transfected cells; host or cells: HEK293 (ATCC CRL-1573)
Method: as §1

hGPR17L-G136S [2] = target: T7, hGPR17L-G136S (Homo sapiens, UniProt Q13304, G136S); assay: GloSensor cAMP assay, inhibition of forskolin-stimulated cAMP
T7 construct: expressed in transfected cells; host or cells: HEK293 (ATCC CRL-1573), transient transfection
Method: (§2) HEK293 cells were seeded at 20,000 cells/well into white, opaque 96-well plates. The next day, cells were transiently cotransfected with pGloSensor-cAMP-22F and pcDNA3-HA-hGPR17L or pcDNA3-HA-hGPR17L-variants using lipofectamine 3000. Twenty-four hours posttransfection, growth medium and transfection mix were aspirated and replaced with 100 μl/well equilibration medium (2% Promega GloSensor cAMP reagent [E1291; Promega Corporation] in CO2-independent medium) and incubated at room temperature for 2 h. Baseline luminescence was read on a Molecular Devices SpectraMax iD5 plate reader (Molecular Devices) at ambient room temperature for 8 min. Subsequently, 10 μl/well MDL29,951 diluted in assay buffer (HBSS, 20 mM HEPES, pH 7.2) was added and luminescence was read for 10 min. Finally, 10 μl/well forskolin (1099; Tocris Bioscience) diluted in assay buffer was added and luminescence was measured for 20–30 min. The average luminescence value for the 14–20 min time points for each well was normalized to their average baseline luminescence value and expressed as a percentage of the forskolin-stimulated response within each transfection condition.

hGPR17L-R248Q [3] = target: T5, hGPR17L-R248Q; assay: as above
Method: as §2

hGPR17L-WT [4] = target: T8, hGPR17L-WT (Homo sapiens, UniProt Q13304); assay: as above
T8 construct: expressed in transfected cells; host or cells: HEK293 (ATCC CRL-1573), transient transfection of pcDNA3-HA-hGPR17L
Method: as §2

hGPR17L-D105N = target: T9, hGPR17L-D105N (Homo sapiens, UniProt Q13304, D105N); assay: as above
T9 construct: expressed in transfected cells; host or cells: HEK293 (ATCC CRL-1573), transient transfection
Method: as §2

hGPR17L-G136S [5] = target: T7, hGPR17L-G136S; assay: Calcium flux assay; conditions: HEK293, read-out: calcium response, % of the maximum response observed for hGPR17L-WT
Method: (§3) HEK293 cells were seeded at 20,000 cells/well into black, optical bottom, poly-D-lysine coated 96-well plates. The following day, cells were transiently transfected with pcDNA3-HA-hGPR17L or pcDNA3-HA-hGPR17L-variants using lipofectamine 3000. Twenty-four hours after transfection, the growth medium and transfection mix were decanted and 100 μl/well assay buffer (HBSS, 20 mM HEPES, pH 7.2) and 100 μl/well Calcium 6 loading dye (R8190; Molecular Devices) were added to the plate and incubated at 37 °C, 5% CO2 for 1 h 45 min. Plate was allowed to equilibrate to room temperature on the bench top for 30 min. MDL29,951 diluted in assay buffer was added to the wells and fluorescence (485 nm excitation, 525 nm emission, and 515 nm automatic emission cutoff) was measured using a Molecular Devices FlexStation3 (Molecular Devices). For experiments with pertussis toxin, cells were pretreated with 100 ng/ml pertussis toxin overnight and 100 ng/ml pertussis toxin was included with Calcium 6 loading dye for calcium flux assays.

hGPR17L-WT [6] = target: T8, hGPR17L-WT; assay: Calcium flux assay
Method: as §3

[7] = read-out: Stimulatory cAMP EC50
[8] = HEK293, inhibition of 3 μM forskolin-stimulated cAMP
[9] = read-out: cAMP IC50, HEK293, inhibition of 3 μM forskolin-stimulated cAMP

T9 sequence (Q13304 whole entry D105N): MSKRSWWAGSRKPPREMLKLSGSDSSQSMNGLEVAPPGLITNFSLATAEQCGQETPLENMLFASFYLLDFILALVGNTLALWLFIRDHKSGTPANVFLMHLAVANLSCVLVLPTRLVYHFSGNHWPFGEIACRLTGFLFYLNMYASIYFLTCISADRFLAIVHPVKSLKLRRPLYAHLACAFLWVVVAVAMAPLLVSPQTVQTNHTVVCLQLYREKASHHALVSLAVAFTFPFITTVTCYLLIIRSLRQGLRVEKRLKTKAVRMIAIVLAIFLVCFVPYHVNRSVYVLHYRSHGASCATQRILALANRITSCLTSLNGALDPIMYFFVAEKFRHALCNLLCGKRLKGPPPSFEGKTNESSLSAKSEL
T7 sequence (Q13304 whole entry G136S): as the sequence (Q13304 whole entry D105N) above, with N105D, G136S counted along it
T5 sequence (Q13304 whole entry R248Q): as the sequence (Q13304 whole entry D105N) above, with N105D, R248Q counted along it
T6 sequence (Q13304 whole entry R301H): as the sequence (Q13304 whole entry D105N) above, with N105D, R301H counted along it
T3 sequence (Q13304 whole entry A131T): as the sequence (Q13304 whole entry D105N) above, with N105D, A131T counted along it
T8 sequence (Q13304 whole entry): as the sequence (Q13304 whole entry D105N) above, with N105D counted along it
T4 sequence (Q13304 whole entry G354V): as the sequence (Q13304 whole entry D105N) above, with N105D, G354V counted along it
T2 sequence (Q13304 whole entry F43L): as the sequence (Q13304 whole entry D105N) above, with F43L, N105D counted along it
T1 sequence (Q13304 whole entry V103M): as the sequence (Q13304 whole entry D105N) above, with V103M, N105D counted along it

O=C(O)CCc1c(C(=O)O)[nH]c2cc(Cl)cc(Cl)c12 [MDL29,951]
Stimulatory cAMP pEC50 ± SEM (hGPR17L-V103M): 4.33 ± 0.36
loss of potency, fold shift in EC50 vs hGPR17L-WT (stimulatory cAMP) (hGPR17L-V103M): 3–7 fold
Stimulatory cAMP Efficacy (% of WT Emax) (hGPR17L-V103M; hGPR17L-V103M, HEK293, 100 ng/ml pertussis toxin overnight): 150 ± 48 % of WT Emax
EC50 (hGPR17L-V103M; [7]): 47 µM
Stimulatory cAMP pEC50 ± SEM (hGPR17L-F43L): 5.21 ± 0.13
Stimulatory cAMP Efficacy (% of WT Emax) (hGPR17L-F43L; hGPR17L-F43L, HEK293, 100 ng/ml pertussis toxin overnight): 99 ± 20 % of WT Emax
EC50 (hGPR17L-F43L; [7]): 6.2 µM
Stimulatory cAMP pEC50 ± SEM (hGPR17L-A131T): 4.72 ± 0.05
loss of potency, fold shift in EC50 vs hGPR17L-WT (stimulatory cAMP) (hGPR17L-A131T): 3–7 fold
Stimulatory cAMP Efficacy (% of WT Emax) (hGPR17L-A131T; hGPR17L-A131T, HEK293, 100 ng/ml pertussis toxin overnight): 105 ± 21 % of WT Emax
EC50 (hGPR17L-A131T; [7]): 19 µM
Stimulatory cAMP pEC50 ± SEM (hGPR17L-G354V): 4.88 ± 0.12
Stimulatory cAMP Efficacy (% of WT Emax) (hGPR17L-G354V; hGPR17L-G354V, HEK293, 100 ng/ml pertussis toxin overnight): 105 ± 23 % of WT Emax
EC50 (hGPR17L-G354V; [7]): 14 µM
Stimulatory cAMP pEC50 ± SEM (hGPR17L-R248Q [1]): 5.22 ± 0.01
Stimulatory cAMP Efficacy (% of WT Emax) (hGPR17L-R248Q [1]; hGPR17L-R248Q, HEK293, 100 ng/ml pertussis toxin overnight): 41 ± 1.7 % of WT Emax
EC50 (hGPR17L-R248Q [1]; [7]): 6.1 µM
Stimulatory cAMP pEC50 ± SEM (hGPR17L-R301H): 4.84 ± 0.12
Stimulatory cAMP Efficacy (% of WT Emax) (hGPR17L-R301H; hGPR17L-R301H, HEK293, 100 ng/ml pertussis toxin overnight): 68 ± 11 % of WT Emax
EC50 (hGPR17L-R301H; [7]): 16 µM
fold less potent for inhibition of forskolin-stimulated cAMP relative to hGPR17L-WT (hGPR17L-G136S [2]): approximately 400 fold
cAMP Efficacy (% inhibition) (hGPR17L-G136S [2]; HEK293, 3 μM forskolin): 39 ± 2.3 % inhibition
cAMP 10 μM MDL +3 μM FSK (% of FSK) (hGPR17L-G136S [2]; HEK293, 10 μM MDL29,951): 65 ± 5.0 % of FSK
cAMP 100 μM MDL +3 μM FSK (% of FSK) (hGPR17L-G136S [2]; HEK293, 100 μM MDL29,951): 60 ± 3.4 % of FSK
cAMP pIC50 ± SEM (hGPR17L-G136S [2]; [8]): 5.89 ± 0.30
IC50 (hGPR17L-G136S [2]; [9]): 1.3 µM
cAMP Efficacy (% inhibition) (hGPR17L-R248Q [3]; HEK293, 3 μM forskolin): 41 ± 3.9 % inhibition
cAMP 10 μM MDL +3 μM FSK (% of FSK) (hGPR17L-R248Q [3]; HEK293, 10 μM MDL29,951): 84 ± 5.5 % of FSK
cAMP 100 μM MDL +3 μM FSK (% of FSK) (hGPR17L-R248Q [3]; HEK293, 100 μM MDL29,951): 98 ± 6.7 % of FSK
cAMP pIC50 ± SEM (hGPR17L-R248Q [3]; [8]): 8.73 ± 2.2
IC50 (hGPR17L-R248Q [3]; [9]): 0.0019 µM
cAMP Efficacy (% inhibition) (hGPR17L-WT [4]; HEK293, 3 μM forskolin): 47 ± 2.5 % inhibition
cAMP 10 μM MDL +3 μM FSK (% of FSK) (hGPR17L-WT [4]; HEK293, 10 μM MDL29,951): 92 ± 4.4 % of FSK
cAMP 100 μM MDL +3 μM FSK (% of FSK) (hGPR17L-WT [4]; HEK293, 100 μM MDL29,951): 115 ± 6.1 % of FSK
cAMP pIC50 ± SEM (hGPR17L-WT [4]; [8]): 8.52 ± 0.13
IC50 (hGPR17L-WT [4]; [9]): 0.003 µM
fold less potent for inhibition of forskolin-stimulated cAMP relative to hGPR17L-WT (hGPR17L-D105N): sixfold less potent
cAMP Efficacy (% inhibition) (hGPR17L-D105N; HEK293, 3 μM forskolin): 48 ± 4.7 % inhibition
cAMP 10 μM MDL +3 μM FSK (% of FSK) (hGPR17L-D105N; HEK293, 10 μM MDL29,951): 49 ± 7.3 % of FSK
cAMP 100 μM MDL +3 μM FSK (% of FSK) (hGPR17L-D105N; HEK293, 100 μM MDL29,951): 56 ± 10 % of FSK
cAMP pIC50 ± SEM (hGPR17L-D105N; [8]): 7.75 ± 0.25
IC50 (hGPR17L-D105N; [9]): 0.018 µM
Emax (hGPR17L-G136S [5]): 3.6 ± 1.3%
calcium flux efficacy with pertussis toxin (% of control pretreatment) (hGPR17L-WT [6]): 82 ± 1.4 % of control pretreatment
calcium flux potency with pertussis toxin, fold shift in EC50 (hGPR17L-WT [6]): approximately 2.5 fold
Ca2+ Efficacy (% of WT Emax) (hGPR17L-WT [6]; hGPR17L-WT, HEK293): 100 % of WT Emax
maximum stimulation of calcium mobilization (hGPR17L-WT [6]; hGPR17L-WT, HEK293): 1.51 ± 0.14 Peak ΔF/F
Ca2+ pEC50 ± SEM (hGPR17L-WT [6]; hGPR17L-WT, HEK293, calcium mobilization): 7.09 ± 0.11
EC50 (hGPR17L-WT [6]; read-out: Ca2+ EC50, hGPR17L-WT, HEK293, calcium mobilization): 0.082 µM

Reference: publication PMC8267566, “Human GPR17 missense variants identified in metabolic disease patients have distinct downstream signaling profiles” (The Journal of Biological Chemistry, 2021)
